Test systems include IGROV1 ovarian; UACC-62 melanoma; HOP-62 NSCLC; 786-0 renal; SF-268 CNS; CCRF-CEM leukemia; RXF 393 renal; NCI-H226 lung; MCF7 breast; MOLT-4 leukemia; HCC-2998 colon; HL-60(TB) leukemia.
Common to all, as to assay: NCI tumour cell line growth inhibition, 48 h

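The compound was tested at five concentrations on cells cultured in 96-well plates, with a 48-hour exposure period. TGI is the concentration that stops growth completely.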 Where a SMILES comes first, the peptide text is derived from it. The star is where a group is joined. Cbz = O=C(OCc1ccccc1)*

Take `COc1ccc2nc(-c3ccccc3)c(=O)[nH]c2c1`: the TGI in the test with IGROV1 ovarian, in the test on UACC-62 melanoma, in the test with HOP-62 NSCLC, in the test on 786-0 renal, in the test on SF-268 CNS and in the test with CCRF-CEM leukemia was above 100 µM in each case. Besides, the TGI in the test with RXF 393 renal, in the test with NCI-H226 lung, in the test with MCF7 breast, with MOLT-4 leukemia, in the test on HCC-2998 colon and in the test with HL-60(TB) leukemia was above 100 µM throughout.
Turning to `Oc1c(Br)ccc2cccnc12`, the TGI in the test with IGROV1 ovarian was 15.6 µM; in the test on UACC-62 melanoma, 7 µM; in the test with HOP-62 NSCLC, above 100 µM; in the test with 786-0 renal, above 43.2 µM; in the test on SF-268 CNS, above 100 µM; in the test on CCRF-CEM leukemia, 3.98 µM. Besides, the TGI in the test with RXF 393 renal is 32.4 µM; in the test with NCI-H226 lung, 38.5 µM; with MCF7 breast, 2.73 µM; in the test with MOLT-4 leukemia it was above 26.9 µM; in the test with HCC-2998 colon it was above 100 µM; in the test with HL-60(TB) leukemia, 1.32 µM.
Consider `Cc1ccnc2c1C(=O)C1=C(OC(C)(C)CC1O)C2=O` (configuration not stated), for which the TGI with IGROV1 ovarian turned out to be 11.3 µM; with UACC-62 melanoma it was 3.25 µM; in the test on HOP-62 NSCLC it was 13.6 µM; with 786-0 renal it was 16.4 µM; with SF-268 CNS, 17.5 µM; in the test with CCRF-CEM leukemia, 44.5 µM. The TGI is 23 µM in the test with RXF 393 renal; 21.2 µM in the test with NCI-H226 lung; 7.94 µM in the test with MCF7 breast; 26.9 µM with MOLT-4 leukemia; 15.3 µM with HCC-2998 colon; above 24 µM in the test on HL-60(TB) leukemia.
`CCOC(=O)CCC(NC(=O)C(Cc1ccccc1)NC(=O)OCc1ccccc1)C(=O)OCC` (stereo not drawn) (Cbz-Phe-Glu(OEt)-OEt; configuration not given here): the TGI in the test on IGROV1 ovarian is 32.3 µM; with UACC-62 melanoma it was 32.5 µM; in the test with HOP-62 NSCLC, 32.5 µM; in the test with 786-0 renal it was 32 µM; in the test on SF-268 CNS, 34.5 µM; in the test on CCRF-CEM leukemia, above 64.7 µM. Moreover, the TGI is 32.1 µM in the test with RXF 393 renal; 32.6 µM in the test with NCI-H226 lung; 39.6 µM in the test on MCF7 breast; above 71.3 µM in the test on MOLT-4 leukemia; 32.1 µM with HCC-2998 colon; 41.2 µM with HL-60(TB) leukemia.
Consider `CC(=O)O[C@@]12CO[C@@H]1CC(O)[C@@]1(C)C(=O)[C@H](O)C3=C(C)C(O)C[C@@](O)(C(OC(=O)c4ccccc4)C12)C3(C)C` (some centres not stated), for which the TGI in the test on IGROV1 ovarian was above 100 µM; in the test on UACC-62 melanoma, 3.7 µM; with HOP-62 NSCLC, above 100 µM; with 786-0 renal, above 100 µM; in the test on SF-268 CNS it was above 100 µM; with CCRF-CEM leukemia, above 100 µM. The TGI is above 100 µM with RXF 393 renal; above 100 µM in the test with NCI-H226 lung; above 100 µM in the test with MCF7 breast; above 31.6 µM in the test with MOLT-4 leukemia; 21.6 µM with HCC-2998 colon; above 100 µM with HL-60(TB) leukemia.
With `CCOC(=O)c1c(OCC)[nH]c(=O)c(C(c2cccs2)c2c(O)c(C(=O)OCC)c(OCC)[nH]c2=O)c1O`, the TGI in the test on IGROV1 ovarian is 28.6 µM; in the test with UACC-62 melanoma it was 28.6 µM; in the test with HOP-62 NSCLC, 35.8 µM; with 786-0 renal it was 59.3 µM; in the test on SF-268 CNS it was 35 µM; in the test on CCRF-CEM leukemia, above 100 µM. For the same molecule, the TGI was 19 µM in the test with RXF 393 renal; 27.4 µM in the test with NCI-H226 lung; 53.9 µM in the test on MCF7 breast; 22.5 µM in the test on MOLT-4 leukemia; 35 µM in the test on HCC-2998 colon; 40.7 µM in the test on HL-60(TB) leukemia.
In the case of `O=c1[nH]nc(Cc2ccc(Cl)cc2)n1/N=C/c1cccs1`, the TGI in the test with IGROV1 ovarian is 79.5 µM; in the test with UACC-62 melanoma it was above 100 µM; with HOP-62 NSCLC, 55.2 µM; in the test with 786-0 renal, above 100 µM; with SF-268 CNS it was 42.9 µM; in the test on CCRF-CEM leukemia, above 100 µM. The TGI with RXF 393 renal is 32.7 µM; in the test on NCI-H226 lung, above 100 µM; in the test with MCF7 breast, above 100 µM; in the test on MOLT-4 leukemia, above 100 µM; with HCC-2998 colon, above 100 µM; with HL-60(TB) leukemia it was above 100 µM.
For the molecule `N#Cc1cc2c(cc1Cl)Sc1nnc(Nc3ccccc3)n1S2(=O)=O`, the TGI in the test with IGROV1 ovarian is 5.76 µM; in the test with UACC-62 melanoma, 3.58 µM; in the test with HOP-62 NSCLC, 3.36 µM; in the test with 786-0 renal, 8.49 µM; in the test with SF-268 CNS, 10.5 µM; in the test with CCRF-CEM leukemia it was above 24 µM. For the same molecule, the TGI in the test with RXF 393 renal is 4.48 µM; in the test on NCI-H226 lung, 5.99 µM; with MCF7 breast, above 40.4 µM; in the test on MOLT-4 leukemia it was 4.06 µM; in the test with HCC-2998 colon, 3 µM; in the test on HL-60(TB) leukemia, 13.6 µM.
Regarding `S=C1NCCN1C(=S)Nc1ccccc1`, the TGI in the test with IGROV1 ovarian, with UACC-62 melanoma, in the test on HOP-62 NSCLC, with 786-0 renal, with SF-268 CNS and in the test with CCRF-CEM leukemia was above 100 µM each time. The TGI with RXF 393 renal is 58 µM; with NCI-H226 lung, above 100 µM; with MCF7 breast it was above 100 µM; in the test on MOLT-4 leukemia it was above 100 µM; in the test on HCC-2998 colon it was above 100 µM; with HL-60(TB) leukemia it was above 100 µM.
As for `O=C1C=C(Nc2ccc(S(=O)(=O)Nc3nccs3)cc2)c2ccccc2C1=O`, the TGI with IGROV1 ovarian is above 100 µM; with UACC-62 melanoma it was 53.5 µM; with HOP-62 NSCLC, 29.7 µM; with 786-0 renal, above 100 µM; in the test with SF-268 CNS, above 100 µM; in the test on CCRF-CEM leukemia, 48.1 µM. Besides, the TGI in the test with RXF 393 renal was above 100 µM; with NCI-H226 lung, 70.1 µM; in the test on MCF7 breast, 36.1 µM; in the test with MOLT-4 leukemia, above 100 µM; in the test with HCC-2998 colon, 47.3 µM; in the test with HL-60(TB) leukemia, 59.8 µM.
As to `Cc1c2ccc3ccccc3c2c[n+]2ccccc12`, the TGI with IGROV1 ovarian was above 100 µM; in the test on UACC-62 melanoma it was 33.9 µM; in the test with HOP-62 NSCLC, 45.7 µM; in the test with 786-0 renal, 25.8 µM; in the test on SF-268 CNS it was 6.92 µM; with CCRF-CEM leukemia it was 37.2 µM. Besides, the TGI in the test on RXF 393 renal was above 84.4 µM; with NCI-H226 lung it was 20.1 µM; in the test with MCF7 breast, above 87.3 µM; with MOLT-4 leukemia it was 48.7 µM; in the test with HCC-2998 colon, 17.7 µM; in the test with HL-60(TB) leukemia it was above 75.6 µM.

For the origin of these results see PubChem BioAssay (NCI).
